The text below walks through data of patent US20120058499A1, “Bioluminescent Detection of Protease Activity” (priority 2010, published 2012).

Series [1] deals with T1, isopeptidase T (Homo sapiens, UniProt P45974).
T1 sequence (P45974 1-858): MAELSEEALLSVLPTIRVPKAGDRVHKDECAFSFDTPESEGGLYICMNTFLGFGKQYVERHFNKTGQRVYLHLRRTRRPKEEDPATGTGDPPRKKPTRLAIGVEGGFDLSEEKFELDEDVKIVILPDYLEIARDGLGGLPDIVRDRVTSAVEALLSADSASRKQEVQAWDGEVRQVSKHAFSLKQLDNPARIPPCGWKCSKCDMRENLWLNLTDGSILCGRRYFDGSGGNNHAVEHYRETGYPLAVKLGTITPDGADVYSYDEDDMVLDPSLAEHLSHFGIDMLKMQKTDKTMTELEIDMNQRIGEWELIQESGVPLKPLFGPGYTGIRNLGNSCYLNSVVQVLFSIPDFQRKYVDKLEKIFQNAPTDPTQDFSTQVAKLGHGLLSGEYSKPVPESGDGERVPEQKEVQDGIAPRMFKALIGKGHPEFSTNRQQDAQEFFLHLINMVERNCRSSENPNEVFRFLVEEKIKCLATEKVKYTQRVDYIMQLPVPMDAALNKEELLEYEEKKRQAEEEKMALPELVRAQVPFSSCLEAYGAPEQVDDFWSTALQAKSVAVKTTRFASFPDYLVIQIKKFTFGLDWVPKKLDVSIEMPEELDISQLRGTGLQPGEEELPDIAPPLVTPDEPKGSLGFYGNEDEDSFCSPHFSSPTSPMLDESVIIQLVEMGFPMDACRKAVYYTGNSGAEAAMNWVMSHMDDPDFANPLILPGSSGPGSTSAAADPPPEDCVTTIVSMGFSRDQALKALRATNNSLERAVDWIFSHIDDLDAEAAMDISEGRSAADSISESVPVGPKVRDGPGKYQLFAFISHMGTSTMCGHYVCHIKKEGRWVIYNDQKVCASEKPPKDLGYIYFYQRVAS
The following applies: Dang et al., 1998; cited from earlier work.

The subject of series [2] is Otub2, JosD1, JosD2, AMSH, Ataxin3, Ataxin3-like, UCHL5, USP20, and USP14. The experiment in a line: Substrate comparison on panel of nine isopeptidases. The series is classed as biochemical. The following applies: seven of nine DUBs (exceptions JosD2 and UCHL5). On the procedure:
(§1) For Ub-AMC and Ub-Rhodamine110, all enzymes were diluted into 50 mM Tris, pH 8.0, 5 mM DTT, 0.05% CHAPS to a final concentration of 10 nM. […] Either Ub-AMC or Ub-Rhodamine110 (final reaction concentration equal to 250 nM) were diluted into 50 mM Tris, pH 8.0, 5 mM DTT, 0.05% (w/v) CHAPS. […] For Ub-Rhodamine110, fluorescence was monitored with filters corresponding to excitation at 485 nm and emission at 531 nm.

Series [3] deals with Ataxin3 (Homo sapiens, UniProt P54252). The experiment in a line: Platform comparison of DUB substrates, signal to background. Format: biochemical. The conditions noted are these: DUB 10 nM; signal at 30 minutes; Ub-LUC 100 nM, DUB-Glo substrate 20 μM, Ub-AMC/Ub-rho 250 nM. On the procedure: as §1
The target in series [4] is JosD1 (Homo sapiens, UniProt Q15040). The description is as above. The series is classed as biochemical. The conditions noted are these: DUB 10 nM; signal at 30 minutes; Ub-LUC 100 nM, DUB-Glo substrate 20 μM, Ub-AMC/Ub-rho 250 nM. The method, then: as §1
In series [5] the target is T2, AMSH (Homo sapiens, UniProt O95630).
T2 sequence (O95630 1-424): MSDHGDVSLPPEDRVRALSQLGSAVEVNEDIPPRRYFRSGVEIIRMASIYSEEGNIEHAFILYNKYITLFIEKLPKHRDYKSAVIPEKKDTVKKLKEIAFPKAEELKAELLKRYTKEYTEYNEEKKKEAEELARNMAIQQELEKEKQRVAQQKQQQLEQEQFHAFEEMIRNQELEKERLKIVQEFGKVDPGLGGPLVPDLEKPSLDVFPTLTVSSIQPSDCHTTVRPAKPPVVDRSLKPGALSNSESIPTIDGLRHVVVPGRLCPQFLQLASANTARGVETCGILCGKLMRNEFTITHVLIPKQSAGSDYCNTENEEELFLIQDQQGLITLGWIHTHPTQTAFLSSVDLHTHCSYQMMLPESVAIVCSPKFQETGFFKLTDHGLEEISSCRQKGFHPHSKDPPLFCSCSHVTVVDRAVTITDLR
The series is described as above. The series is classed as biochemical. The following applies: DUB 10 nM; signal at 30 minutes; Ub-LUC 100 nM, DUB-Glo substrate 20 μM, Ub-AMC/Ub-rho 250 nM. On the procedure: as §1

In series [6] the target is USP14 (Homo sapiens, UniProt P54578). The series is described as above. The series is classed as biochemical. The following applies: DUB 10 nM; signal at 30 minutes; Ub-LUC 100 nM, DUB-Glo substrate 20 μM, Ub-AMC/Ub-rho 250 nM. On the procedure:
as §1

For series [7], the target named is T3, JosD2 (Homo sapiens, UniProt Q8TAC2).
T3 sequence (Q8TAC2 1-188): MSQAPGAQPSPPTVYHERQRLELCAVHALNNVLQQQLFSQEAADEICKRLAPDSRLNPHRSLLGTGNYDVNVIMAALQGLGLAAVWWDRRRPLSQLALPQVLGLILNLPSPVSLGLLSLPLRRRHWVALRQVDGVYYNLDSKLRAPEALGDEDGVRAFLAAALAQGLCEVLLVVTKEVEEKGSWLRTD
The description is as above. Format: biochemical. The following applies: DUB 10 nM; signal at 30 minutes; Ub-LUC 100 nM, DUB-Glo substrate 20 μM, Ub-AMC/Ub-rho 250 nM. The method, then: as §1

For series [8], the target named is T4, UCHL5 (Homo sapiens, UniProt Q9Y5K5).
T4 sequence (Q9Y5K5 1-329): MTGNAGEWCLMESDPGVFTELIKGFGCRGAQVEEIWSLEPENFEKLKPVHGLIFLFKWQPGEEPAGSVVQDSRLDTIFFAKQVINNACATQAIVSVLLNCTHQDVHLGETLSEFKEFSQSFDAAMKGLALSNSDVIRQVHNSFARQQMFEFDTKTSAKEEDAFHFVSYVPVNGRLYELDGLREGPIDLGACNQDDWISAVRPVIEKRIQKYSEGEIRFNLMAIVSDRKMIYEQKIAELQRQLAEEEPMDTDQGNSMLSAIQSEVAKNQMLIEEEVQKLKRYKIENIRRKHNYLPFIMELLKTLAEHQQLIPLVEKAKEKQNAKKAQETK
The description is as above. The series is classed as biochemical. The conditions noted are these: DUB 10 nM; signal at 30 minutes; Ub-LUC 100 nM, DUB-Glo substrate 20 μM, Ub-AMC/Ub-rho 250 nM. The method, then:
as §1

Series [9] addresses T5, Otub2 (Homo sapiens, UniProt Q96DC9).
T5 sequence (Q96DC9 1-234): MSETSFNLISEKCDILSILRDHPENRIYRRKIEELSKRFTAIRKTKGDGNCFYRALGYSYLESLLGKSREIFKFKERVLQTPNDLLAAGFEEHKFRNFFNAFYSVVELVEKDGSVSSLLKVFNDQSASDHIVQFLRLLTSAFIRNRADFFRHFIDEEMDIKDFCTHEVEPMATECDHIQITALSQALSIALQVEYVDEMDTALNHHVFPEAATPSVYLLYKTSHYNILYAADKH
The series is described as above. Format: biochemical. The conditions noted are these: DUB 10 nM; signal at 30 minutes; Ub-LUC 100 nM, DUB-Glo substrate 20 μM, Ub-AMC/Ub-rho 250 nM. The method, then:
as §1

The target in series [10] is T6, Ataxin3-like (Homo sapiens, UniProt Q9H3M9).
T6 sequence (Q9H3M9 1-355): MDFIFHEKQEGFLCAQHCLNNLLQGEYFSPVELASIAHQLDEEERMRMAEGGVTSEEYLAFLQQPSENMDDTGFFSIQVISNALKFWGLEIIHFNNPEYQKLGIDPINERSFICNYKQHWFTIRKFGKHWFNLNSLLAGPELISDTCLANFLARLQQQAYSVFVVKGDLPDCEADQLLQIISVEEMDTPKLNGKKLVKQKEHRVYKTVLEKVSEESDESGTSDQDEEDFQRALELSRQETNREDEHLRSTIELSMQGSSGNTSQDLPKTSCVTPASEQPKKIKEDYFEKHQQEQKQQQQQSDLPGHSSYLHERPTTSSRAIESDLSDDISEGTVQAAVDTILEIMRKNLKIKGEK
The description is as above. The series is classed as biochemical. The conditions noted are these: DUB 10 nM; signal at 30 minutes; Ub-LUC 100 nM, DUB-Glo substrate 20 μM, Ub-AMC/Ub-rho 250 nM. The method, then: as §1

Sequence of Ataxin3 (P54252 whole entry, species assumed): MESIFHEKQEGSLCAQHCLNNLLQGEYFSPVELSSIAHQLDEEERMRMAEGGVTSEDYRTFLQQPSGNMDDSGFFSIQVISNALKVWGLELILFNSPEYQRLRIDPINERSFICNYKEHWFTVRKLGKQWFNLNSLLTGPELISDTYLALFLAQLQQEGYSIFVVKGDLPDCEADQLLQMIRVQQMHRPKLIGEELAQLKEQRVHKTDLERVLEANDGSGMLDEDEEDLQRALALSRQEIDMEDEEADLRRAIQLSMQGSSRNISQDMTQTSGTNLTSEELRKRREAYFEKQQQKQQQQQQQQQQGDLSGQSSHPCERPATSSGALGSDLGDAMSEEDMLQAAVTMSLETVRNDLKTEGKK
Sequence of USP14 (P54578 whole entry, species assumed): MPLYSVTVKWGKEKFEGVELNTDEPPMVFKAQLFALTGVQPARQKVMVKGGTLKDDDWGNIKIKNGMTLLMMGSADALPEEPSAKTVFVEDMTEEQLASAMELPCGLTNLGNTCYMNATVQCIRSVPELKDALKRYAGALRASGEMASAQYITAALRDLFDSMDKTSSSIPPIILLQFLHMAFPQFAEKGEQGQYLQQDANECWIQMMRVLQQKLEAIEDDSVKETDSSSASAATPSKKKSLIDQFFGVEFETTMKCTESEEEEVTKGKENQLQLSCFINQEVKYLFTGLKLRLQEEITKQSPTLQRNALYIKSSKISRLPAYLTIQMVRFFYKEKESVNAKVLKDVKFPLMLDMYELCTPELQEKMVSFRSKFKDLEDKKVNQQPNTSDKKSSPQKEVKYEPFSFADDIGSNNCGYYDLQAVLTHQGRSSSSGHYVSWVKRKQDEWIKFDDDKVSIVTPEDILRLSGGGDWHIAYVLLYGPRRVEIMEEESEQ

In the case of “ubiquitin-7-amino-4-methylcoumarin [Ub-AMC]”, the “relative catalytic efficiency (kcat/Km), fold higher than AMC derivative of Z-Leu-Arg-Gly-Gly peptide” value in series [1] is about 8000 fold. In addition, the “detectable activity (S/B>3)” value in [2] is on record as “little to no detectable activity”. For the same substance, the “Signal to Background value” in series [3] stood at 0.9; in [4], 1.1; in series [5], 1.0; in series [6], 1.0; in series [7], 2.1; in series [8] it was 8.1. Besides, the “Signal to Background value” in series [9] is 1.2; in series [10], 1.1.
Regarding ubiquitin-rhodamine110 [Ub-rho], the entries for the “detectable activity (S/B>3)” value in [2] (listed as Ub-Rhodamine110) and in series [2] (listed as Ub-rhodamine110) were “no detectable activity” and “little to no detectable activity”, respectively. Besides, the “Signal to Background value” is given as 1.3 in series [3]; 1.5 in series [4]; 1.2 in [5]; 8.2 in [7]; 103 in [8]; 1.7 in [9]. For the same substance, in series [10], the “Signal to Background value” worked out at 1.6.
